Experiment [1] concerns the target T1, 5-hydroxytryptamine receptor 1A (Homo sapiens) (UniProt P08908).
T1 sequence (whole entry): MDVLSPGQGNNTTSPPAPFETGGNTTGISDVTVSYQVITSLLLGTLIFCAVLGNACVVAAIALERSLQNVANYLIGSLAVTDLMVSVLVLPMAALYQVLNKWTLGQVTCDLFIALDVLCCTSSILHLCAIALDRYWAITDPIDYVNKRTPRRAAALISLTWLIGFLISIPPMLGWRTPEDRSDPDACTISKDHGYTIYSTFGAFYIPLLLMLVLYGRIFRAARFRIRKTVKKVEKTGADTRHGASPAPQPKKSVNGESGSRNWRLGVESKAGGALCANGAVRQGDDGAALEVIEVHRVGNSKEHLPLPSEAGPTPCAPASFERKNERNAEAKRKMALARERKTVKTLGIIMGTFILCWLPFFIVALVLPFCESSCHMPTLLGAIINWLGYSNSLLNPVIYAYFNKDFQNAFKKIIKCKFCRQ
Conditions: Compound concentration 10.0 uM.

For experiment [2], the target named is ANK_REP_REGION domain-containing protein (Cavia porcellus, UniProt H0VJD1). As to the kind of experiment: FLIPR Ca2+ assay (guinea pig TRPA1).
Experiment [3] addresses T2, Alpha-2C adrenergic receptor (Homo sapiens) (UniProt P18825).
T2 sequence (whole entry): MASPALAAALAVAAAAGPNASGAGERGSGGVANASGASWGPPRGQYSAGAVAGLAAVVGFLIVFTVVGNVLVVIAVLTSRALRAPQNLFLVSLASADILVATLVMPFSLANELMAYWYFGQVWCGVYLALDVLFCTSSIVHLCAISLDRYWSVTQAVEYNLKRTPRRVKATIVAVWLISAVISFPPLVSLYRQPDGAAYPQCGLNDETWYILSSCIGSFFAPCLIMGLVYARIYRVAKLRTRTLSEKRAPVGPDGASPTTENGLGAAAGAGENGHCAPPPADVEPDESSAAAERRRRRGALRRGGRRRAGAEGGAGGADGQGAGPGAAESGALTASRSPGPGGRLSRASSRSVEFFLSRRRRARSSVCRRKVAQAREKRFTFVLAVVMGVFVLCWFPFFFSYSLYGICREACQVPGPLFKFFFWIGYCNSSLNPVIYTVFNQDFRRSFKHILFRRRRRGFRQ
The note with it: Compound concentration 10.0 uM.

In experiment [4] the target is T3, Muscarinic acetylcholine receptor M2 (Homo sapiens) (UniProt P08172).
T3 sequence (whole entry): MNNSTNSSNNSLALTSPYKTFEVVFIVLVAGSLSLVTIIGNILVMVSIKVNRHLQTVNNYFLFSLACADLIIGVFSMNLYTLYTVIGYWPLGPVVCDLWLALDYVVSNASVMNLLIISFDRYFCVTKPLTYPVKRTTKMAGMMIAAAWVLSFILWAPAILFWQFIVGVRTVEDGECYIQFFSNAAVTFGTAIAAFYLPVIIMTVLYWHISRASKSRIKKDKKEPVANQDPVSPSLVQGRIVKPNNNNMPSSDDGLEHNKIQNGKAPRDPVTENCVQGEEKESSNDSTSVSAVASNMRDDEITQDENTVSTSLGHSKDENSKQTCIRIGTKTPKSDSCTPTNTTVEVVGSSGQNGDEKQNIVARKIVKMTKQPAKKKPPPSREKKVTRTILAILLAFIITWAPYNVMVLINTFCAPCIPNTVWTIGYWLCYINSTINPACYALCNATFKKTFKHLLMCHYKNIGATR
The note with it: Compound concentration 10.0 uM.

For experiment [5], the target named is 5-hydroxytryptamine receptor 5A (Homo sapiens) (UniProt P47898). The note with it: Compound concentration 10.0 uM.
The species named for experiment [6] is Homo sapiens. As to the kind of experiment: Inhibition of Nicotinic Acetylcholine at compound concentration of 10.0 uM in the Eurofins-Panlabs radioligand binding assay (Eurofins_assay_258590). It counts as protein-complex assay. Conditions: Compound concentration 10.0 uM.
The target in experiment [7] is Estrogen receptor (Homo sapiens) (UniProt P03372). The note with it: Compound concentration 10.0 uM.
Estrogen receptor (Homo sapiens), sequence (P03372 whole entry): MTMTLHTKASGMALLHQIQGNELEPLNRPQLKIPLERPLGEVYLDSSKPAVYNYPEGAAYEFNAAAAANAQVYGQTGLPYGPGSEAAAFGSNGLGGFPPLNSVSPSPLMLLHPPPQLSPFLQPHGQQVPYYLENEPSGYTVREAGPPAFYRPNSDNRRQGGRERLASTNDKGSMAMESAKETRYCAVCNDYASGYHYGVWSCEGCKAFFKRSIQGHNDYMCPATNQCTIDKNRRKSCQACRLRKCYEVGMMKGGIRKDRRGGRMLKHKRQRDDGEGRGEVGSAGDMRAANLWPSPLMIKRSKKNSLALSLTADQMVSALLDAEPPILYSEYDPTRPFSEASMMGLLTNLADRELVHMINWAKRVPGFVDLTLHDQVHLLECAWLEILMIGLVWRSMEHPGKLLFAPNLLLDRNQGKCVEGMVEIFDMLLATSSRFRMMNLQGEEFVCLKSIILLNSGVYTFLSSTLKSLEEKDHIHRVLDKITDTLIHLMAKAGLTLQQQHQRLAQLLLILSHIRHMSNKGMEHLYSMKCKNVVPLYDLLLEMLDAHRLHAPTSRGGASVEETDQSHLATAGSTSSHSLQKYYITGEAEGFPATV
Experiment [8] concerns the target Mu-type opioid receptor (Homo sapiens) (UniProt P35372). Conditions: Compound concentration 10.0 uM.
The target in experiment [9] is Alpha-2B adrenergic receptor (Homo sapiens) (UniProt P18089). Conditions: Compound concentration 10.0 uM.
Alpha-2B adrenergic receptor (Homo sapiens), sequence (P18089 whole entry): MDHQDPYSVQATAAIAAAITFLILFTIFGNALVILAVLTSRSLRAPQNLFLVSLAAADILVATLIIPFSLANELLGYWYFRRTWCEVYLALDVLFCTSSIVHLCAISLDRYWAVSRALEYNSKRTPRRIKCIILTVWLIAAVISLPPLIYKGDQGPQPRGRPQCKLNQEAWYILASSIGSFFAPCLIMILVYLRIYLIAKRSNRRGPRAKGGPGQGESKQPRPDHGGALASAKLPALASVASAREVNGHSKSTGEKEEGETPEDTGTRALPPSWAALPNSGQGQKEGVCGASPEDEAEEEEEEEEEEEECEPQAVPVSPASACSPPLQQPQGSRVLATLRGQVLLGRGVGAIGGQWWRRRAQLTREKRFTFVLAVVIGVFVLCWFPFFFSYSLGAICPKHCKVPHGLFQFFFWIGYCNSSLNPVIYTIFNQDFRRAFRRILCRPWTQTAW
In experiment [10] the target is Insulin receptor (Homo sapiens) (UniProt P06213). The note with it: Rattus norvegicus; Compound concentration 10.0 uM.
Experiment [11] addresses Estrogen receptor (Homo sapiens, UniProt P03372). As to the kind of experiment: Inhibition of Estrogen ERalpha at compound concentration of 10.0 uM in the Eurofins-Panlabs radioligand binding assay (Eurofins_assay_226010). Details: ligand concentration 0.5 nM, non-specific ligand with concentration 1 uM Diethylstilbestrol, incubation time 2 h, incubation temperature 25 C.

Experiment [12] deals with 5-hydroxytryptamine receptor 1B (Homo sapiens) (UniProt P28222). Conditions: Compound concentration 10.0 uM.
5-hydroxytryptamine receptor 1B (Homo sapiens), sequence (P28222 whole entry): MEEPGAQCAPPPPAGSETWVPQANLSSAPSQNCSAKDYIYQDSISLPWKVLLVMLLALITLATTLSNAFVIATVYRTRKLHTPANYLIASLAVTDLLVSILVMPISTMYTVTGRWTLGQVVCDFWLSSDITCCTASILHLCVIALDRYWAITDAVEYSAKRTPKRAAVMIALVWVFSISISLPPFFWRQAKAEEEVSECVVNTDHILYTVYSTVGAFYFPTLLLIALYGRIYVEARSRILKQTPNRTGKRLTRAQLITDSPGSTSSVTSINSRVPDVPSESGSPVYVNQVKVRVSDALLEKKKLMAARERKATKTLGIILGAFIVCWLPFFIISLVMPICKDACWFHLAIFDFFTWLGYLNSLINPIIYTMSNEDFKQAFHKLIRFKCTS
Experiment [13] deals with Transient receptor potential cation channel subfamily A member 1 (Mus musculus, UniProt Q8BLA8). As to the kind of experiment: FLIPR Ca2+ assay (mouse TRPA1).
The target of experiment [14] is Sodium-dependent noradrenaline transporter (Homo sapiens) (UniProt P23975). The note with it: Compound concentration 10.0 uM.
Sodium-dependent noradrenaline transporter (Homo sapiens), sequence (P23975 whole entry): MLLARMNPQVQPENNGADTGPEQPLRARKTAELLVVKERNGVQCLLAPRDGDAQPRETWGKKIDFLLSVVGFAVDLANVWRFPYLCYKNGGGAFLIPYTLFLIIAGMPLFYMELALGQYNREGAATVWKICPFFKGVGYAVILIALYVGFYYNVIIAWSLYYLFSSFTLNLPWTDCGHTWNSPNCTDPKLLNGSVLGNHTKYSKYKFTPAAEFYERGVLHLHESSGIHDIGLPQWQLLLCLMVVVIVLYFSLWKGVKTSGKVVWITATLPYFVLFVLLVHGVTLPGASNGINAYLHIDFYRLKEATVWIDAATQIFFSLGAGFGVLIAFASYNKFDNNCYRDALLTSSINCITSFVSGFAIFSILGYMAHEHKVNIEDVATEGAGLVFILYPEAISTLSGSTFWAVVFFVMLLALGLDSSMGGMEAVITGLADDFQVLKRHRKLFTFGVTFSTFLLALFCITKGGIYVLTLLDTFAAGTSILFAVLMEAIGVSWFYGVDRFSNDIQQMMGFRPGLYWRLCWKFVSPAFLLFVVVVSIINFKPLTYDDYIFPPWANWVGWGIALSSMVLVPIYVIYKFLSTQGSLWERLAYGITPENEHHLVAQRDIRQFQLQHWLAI
The species named for experiment [15] is Oryctolagus cuniculus. As to the kind of experiment: Inhibition of Purinergic P2X at 10 µM in the Eurofins-Panlabs radioligand binding assay (Eurofins_assay_268700). It counts as protein assay. Conditions: Compound concentration 10.0 uM.
Experiment [16] has as its target Endothelin receptor type B (Homo sapiens) (UniProt P24530). The note with it: Compound concentration 10.0 uM.
For experiment [17], the target named is Sigma non-opioid intracellular receptor 1 (Homo sapiens) (UniProt Q99720). The note with it: Compound concentration 10.0 uM.
Experiment [18] deals with 5-hydroxytryptamine receptor 2A (Homo sapiens, UniProt P28223). The note with it: Compound concentration 10.0 uM.
5-hydroxytryptamine receptor 2A, sequence (P28223 whole entry): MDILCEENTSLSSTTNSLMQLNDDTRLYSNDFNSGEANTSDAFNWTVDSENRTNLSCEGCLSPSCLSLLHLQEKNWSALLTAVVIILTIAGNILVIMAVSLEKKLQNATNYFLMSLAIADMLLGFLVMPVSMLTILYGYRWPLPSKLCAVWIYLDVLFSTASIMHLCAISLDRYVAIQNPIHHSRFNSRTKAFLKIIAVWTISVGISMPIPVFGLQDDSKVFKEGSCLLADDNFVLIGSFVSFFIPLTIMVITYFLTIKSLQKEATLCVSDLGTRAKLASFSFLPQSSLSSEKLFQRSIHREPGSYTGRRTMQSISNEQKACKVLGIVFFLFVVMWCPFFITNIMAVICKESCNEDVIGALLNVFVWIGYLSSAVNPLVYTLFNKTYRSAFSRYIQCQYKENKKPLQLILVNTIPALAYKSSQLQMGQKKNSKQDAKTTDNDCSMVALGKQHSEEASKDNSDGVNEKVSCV
The target of experiment [19] is Adenosine Transporter (Cavia porcellus) (UniProt H0V4R7+H0UUG1+H0V3Z5). As to the kind of experiment: Inhibition of Transporter, Adenosine at compound concentration of 10.0 uM in the Eurofins-Panlabs radioligand binding assay (Eurofins_assay_202000). It counts as protein assay. Details: ligand concentration 0.5 nM, non-specific ligand with concentration 5 uM Nitrobenzylthioinosine, incubation time 30 min, incubation temperature 25 C. The note with it: Compound concentration 10.0 uM.

The target of experiment [20] is Histamine H1 receptor (Homo sapiens) (UniProt P35367). The note with it: Compound concentration 10.0 uM.
Histamine H1 receptor (Homo sapiens), sequence (P35367 whole entry): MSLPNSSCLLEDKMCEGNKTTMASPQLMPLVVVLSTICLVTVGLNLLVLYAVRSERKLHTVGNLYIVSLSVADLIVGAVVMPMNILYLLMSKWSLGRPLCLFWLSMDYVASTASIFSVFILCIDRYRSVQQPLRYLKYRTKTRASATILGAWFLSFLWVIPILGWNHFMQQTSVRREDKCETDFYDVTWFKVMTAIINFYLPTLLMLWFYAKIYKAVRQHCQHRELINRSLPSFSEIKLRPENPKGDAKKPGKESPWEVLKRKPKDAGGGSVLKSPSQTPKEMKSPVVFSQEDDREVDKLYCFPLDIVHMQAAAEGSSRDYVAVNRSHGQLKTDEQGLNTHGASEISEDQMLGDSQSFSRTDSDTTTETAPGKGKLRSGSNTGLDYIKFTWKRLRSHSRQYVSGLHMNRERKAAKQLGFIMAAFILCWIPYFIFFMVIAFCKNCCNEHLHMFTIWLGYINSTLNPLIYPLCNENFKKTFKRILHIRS
Experiment [21] concerns the target Glutamate NMDA receptor (Rattus norvegicus) (UniProt P35439+Q00959+Q00960+Q00961+Q62645+Q8VHN2+Q9R1M7). The note with it: Compound concentration 10.0 uM.
Experiment [22] deals with Potassium channel subfamily K member 9 (Homo sapiens, UniProt Q9NPC2). As to the kind of experiment: Selectivity screen (KCNK9).
Potassium channel subfamily K member 9, sequence (Q9NPC2 whole entry): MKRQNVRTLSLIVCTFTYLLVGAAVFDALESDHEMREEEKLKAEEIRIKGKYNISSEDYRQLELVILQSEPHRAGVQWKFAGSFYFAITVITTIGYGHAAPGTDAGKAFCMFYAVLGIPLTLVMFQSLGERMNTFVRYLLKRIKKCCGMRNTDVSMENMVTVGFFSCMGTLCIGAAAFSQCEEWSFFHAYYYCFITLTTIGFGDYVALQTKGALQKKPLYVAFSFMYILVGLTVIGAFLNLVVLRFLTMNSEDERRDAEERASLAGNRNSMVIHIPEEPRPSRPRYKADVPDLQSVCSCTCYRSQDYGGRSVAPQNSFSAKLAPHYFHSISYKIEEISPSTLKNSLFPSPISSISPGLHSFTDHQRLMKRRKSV
The target in experiment [23] is Alpha-2A adrenergic receptor (Homo sapiens) (UniProt P08913). Conditions: Compound concentration 10.0 uM.
Experiment [24] addresses Sodium-dependent serotonin transporter (Homo sapiens) (UniProt P31645). The note with it: Compound concentration 10.0 uM.
Experiment [25] concerns the target D(2) dopamine receptor (Homo sapiens) (UniProt P14416). Conditions: Compound concentration 10.0 uM.
The target of experiment [26] is 5-hydroxytryptamine receptor 2B (Homo sapiens) (UniProt P41595). The note with it: Compound concentration 10.0 uM.

Molecules are shown by their SMILES. Active and inactive are the calls of the source. No cut-off for these calls is given here.

A word on the inhibition: it is the relative decrease from the control value, in per cent. Broadly, the IC50 is the concentration that gives 50% inhibition. In general, Ki refers to a dissociation constant, usually derived from enzyme kinetics or from competition with a known ligand.

Estrogen receptor, sequence (P03372 whole entry): as the sequence (P03372 whole entry) above
Mu-type opioid receptor (Homo sapiens), sequence (P35372 whole entry): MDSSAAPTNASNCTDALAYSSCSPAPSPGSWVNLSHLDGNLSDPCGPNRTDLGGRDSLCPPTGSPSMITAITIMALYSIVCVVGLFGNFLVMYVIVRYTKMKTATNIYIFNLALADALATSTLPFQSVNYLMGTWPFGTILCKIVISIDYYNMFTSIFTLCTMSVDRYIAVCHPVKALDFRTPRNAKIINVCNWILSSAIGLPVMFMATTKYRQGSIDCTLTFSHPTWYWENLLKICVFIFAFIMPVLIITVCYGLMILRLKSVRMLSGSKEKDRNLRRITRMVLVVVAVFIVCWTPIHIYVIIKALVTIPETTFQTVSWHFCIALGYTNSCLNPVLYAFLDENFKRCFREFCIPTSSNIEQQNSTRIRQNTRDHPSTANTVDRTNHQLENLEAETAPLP
Sodium-dependent serotonin transporter (Homo sapiens), sequence (P31645 whole entry, looked up): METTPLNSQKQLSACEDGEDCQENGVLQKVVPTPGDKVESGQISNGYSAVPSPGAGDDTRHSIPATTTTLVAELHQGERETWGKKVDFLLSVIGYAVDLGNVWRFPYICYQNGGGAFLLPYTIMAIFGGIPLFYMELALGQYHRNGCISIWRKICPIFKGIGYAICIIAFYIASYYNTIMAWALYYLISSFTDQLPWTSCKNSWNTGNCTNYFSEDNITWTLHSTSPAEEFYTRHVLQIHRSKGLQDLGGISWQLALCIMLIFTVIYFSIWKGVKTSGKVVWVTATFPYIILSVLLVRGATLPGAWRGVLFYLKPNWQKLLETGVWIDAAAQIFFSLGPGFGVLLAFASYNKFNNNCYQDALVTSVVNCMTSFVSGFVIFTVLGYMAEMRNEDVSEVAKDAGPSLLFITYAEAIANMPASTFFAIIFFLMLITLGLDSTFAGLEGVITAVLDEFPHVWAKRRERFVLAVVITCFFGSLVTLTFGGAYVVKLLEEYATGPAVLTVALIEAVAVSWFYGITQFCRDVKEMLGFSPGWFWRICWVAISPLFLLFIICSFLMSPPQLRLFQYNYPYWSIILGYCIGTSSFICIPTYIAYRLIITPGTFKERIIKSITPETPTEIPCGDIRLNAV
Endothelin receptor type B (Homo sapiens), sequence (P24530 whole entry): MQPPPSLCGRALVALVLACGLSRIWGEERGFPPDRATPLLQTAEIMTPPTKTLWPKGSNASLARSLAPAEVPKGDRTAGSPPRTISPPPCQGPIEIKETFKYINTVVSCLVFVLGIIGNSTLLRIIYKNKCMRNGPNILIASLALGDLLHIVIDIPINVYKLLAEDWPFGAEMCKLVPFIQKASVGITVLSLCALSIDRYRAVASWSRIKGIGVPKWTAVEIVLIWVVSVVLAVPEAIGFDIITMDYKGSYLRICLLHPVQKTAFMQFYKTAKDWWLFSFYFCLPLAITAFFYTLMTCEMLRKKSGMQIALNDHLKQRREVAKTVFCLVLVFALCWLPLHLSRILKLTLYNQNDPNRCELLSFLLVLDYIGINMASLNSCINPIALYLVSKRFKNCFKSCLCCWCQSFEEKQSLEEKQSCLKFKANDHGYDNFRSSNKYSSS

Regarding `O[C@]1(C(F)(F)F)CCCC[C@H]1Nc1ccc(F)cc1` [BAY-390], the inhibition in experiment [1] was 10%; in [3], -1%; in experiment [4] it was -2%; in experiment [5], -7.74%; in experiment [6] it was -7%; in experiment [7] it was 75%. Also, the inhibition was 5% in experiment [8]; 2% in experiment [9]; 8% in experiment [10]; -3.12% in experiment [12]; 16% in [14]; 3% in experiment [15]. In addition, the inhibition was -4% in experiment [16]; 36.2% in [17]; -2% in experiment [18]; -2% in [19]; 6% in experiment [20]; 5% in experiment [21]. For the same compound, the figures for the inhibition in [23] and in experiment [24] were 7% and 3%, respectively. Besides, the IC50 in experiment [2] is 0.068 µM (active); in [11], 2.5 µM; in experiment [13], 0.073 µM (active); in experiment [22], > 25 µM (not active). In experiment [11], this compound came in with an inhibitory constant (Ki) of 0.72 µM.
`COc1cc(N[C@@H]2CCCC[C@]2(O)C(F)(F)F)ccc1F` [BAY-9897]: the inhibition in [25] was -4.34%; in experiment [26], 18%.

The record behind these values is ChEMBL document CHEMBL4507328, “Data for DCP probe BAY-390” (2021).
